Experimental data taken from US11491120B2, “Pharmacological prophylactics against stress-induced affective disorders in females” (The Trustees of Columbia University in the City of New York, priority 2017, dated 2022).
Entries after “also recorded” stand apart in the source; their conditions may differ.

Tested on: female 129S6/SvEv mice
Assay: Contextual fear conditioning (CFC), 3-shock, freezing in training and context re-exposure
Settings: for Freezing during CFC re-exposure vs saline: vehicle condition; for Freezing during re-exposure to the CFC training context vs saline: single i.p. injection 1 week before 3-shock CFC, all doses; for Freezing during re-exposure to the CFC training context vs saline / Attenuation of learned fear: female mice; for Attenuation of learned fear: single injection 1 week before stressor
[1] = Contextual Fear Conditioning Training, Dunnett test Sal vs. drug (2.5), 1 week prophylactic drug
[2] = Contextual Fear Conditioning Training, Dunnett test Sal vs. drug (10), 1 week prophylactic drug
[3] = Contextual Fear Conditioning Training, Dunnett test Sal vs. drug (30), 1 week prophylactic drug
[4] = Ovariectomized cohort, 1 week prophylactic drug, Contextual Fear Conditioning Re-exposure, FIG. 10B, Sham mice, K (10), (2R,6R)-HNK (0.025)
[5] = Ovariectomized cohort, 1 week prophylactic drug, Contextual Fear Conditioning Re-exposure, FIG. 10C, Sham mice, K (10), (2R,6R)-HNK (0.025)
[6] = Ovariectomized, E2/P4 replacement, 1 week prophylactic drug, Contextual Fear Conditioning Re-exposure, FIG. 10E, Vehicle (hormone) mice, K (10), (2R,6R)-HNK (0.025)
[7] = Ovariectomized, E2/P4 replacement, 1 week prophylactic drug, Contextual Fear Conditioning Re-exposure, FIG. 10F, Vehicle (hormone) mice, K (10), (2R,6R)-HNK (0.025)
[8] = Ovariectomized, E2/P4 replacement, 1 week prophylactic drug, Contextual Fear Conditioning Training, FIG. 10D, Vehicle vs E2/P4, same drug, K (10), (2R,6R)-HNK (0.025)
[9] = Sal vs. K (2.5), Fisher's PLSD, 3 day prophylactic drug/Contextual Fear Conditioning Training
[10] = Sal vs. K (10), Fisher's PLSD, 1 week prophylactic drug, learned helplessness stress, Contextual Fear Conditioning Re-exposure
[11] = Sal vs. K (10), Fisher's PLSD, 3 day prophylactic drug/Contextual Fear Conditioning Training
[12] = Sal vs. K (10), Fisher's PLSD, Stress, antidepressant drug/Contextual Fear Conditioning Training

For `CNC1(c2ccccc2Cl)CCCCC1=O` (racemic) [(R,S)-ketamine, (RS)-2-(2-chlorophenyl)-2-(methylamino)cyclohexanone], the “p, Freezing (min 1-5)” value [1] was 0.5398, the “p, Freezing (min 4)” value [1] was 0.9957 and the “p, Freezing (min 5)” value [1] was 0.2720. The “p, Freezing (min 1-5)” value [2] was >0.9999, the “p, Freezing (min 4)” value [2] was 0.9996 and the “p, Freezing (min 5)” value [2] was 0.9996. The “p, Freezing (min 1-5)” value [3] was 0.9998, the “p, Freezing (min 4)” value [3] was >0.9999 and the “p, Freezing (min 5)” value [3] was 0.9997. For the same molecule, the “p, Freezing (min 1-5), Fisher's PLSD, OVX Sal vs OVX drug” value (Ovariectomized cohort, 1 week prophylactic drug, Contextual Fear Conditioning Re-exposure, FIG. 10B, OVX mice, K (10), (2R,6R)-HNK (0.025)) was 0.1532, the “* (significance), Freezing (min 1-5), Fisher's PLSD, Sham Sal vs Sham drug” value [4] was “* (* p<0.05)” and the “p, Freezing (min 1-5), Fisher's PLSD, Sham Sal vs Sham drug” value [4] was 0.0290. For the same molecule, the “p, Freezing (min 1-5), Fisher's PLSD, Sham drug vs OVX drug” value (Ovariectomized cohort, 1 week prophylactic drug, Contextual Fear Conditioning Re-exposure, FIG. 10B, Sham vs OVX, same drug, K (10), (2R,6R)-HNK (0.025)) was 0.7813, the “p, Freezing Average (min 1-5), Fisher's PLSD, OVX Sal vs OVX drug” value (Ovariectomized cohort, 1 week prophylactic drug, Contextual Fear Conditioning Re-exposure, FIG. 10C, OVX mice, K (10), (2R,6R)-HNK (0.025)) was 0.1532 and the “* (significance), Freezing Average (min 1-5), Fisher's PLSD, Sham Sal vs Sham drug” value [5] was “* (* p<0.05)”. The “p, Freezing Average (min 1-5), Fisher's PLSD, Sham Sal vs Sham drug” value [5] was 0.0290, the “p, Freezing Average (min 1-5), Fisher's PLSD, Sham drug vs OVX drug” value (Ovariectomized cohort, 1 week prophylactic drug, Contextual Fear Conditioning Re-exposure, FIG. 10C, Sham vs OVX, same drug, K (10), (2R,6R)-HNK (0.025)) was 0.7813 and the “p, Freezing (min 1-5), Fisher's PLSD, E2/P4 Sal vs E2/P4 drug” value (Ovariectomized, E2/P4 replacement, 1 week prophylactic drug, Contextual Fear Conditioning Re-exposure, FIG. 10E, E2/P4 mice, K (10), (2R,6R)-HNK (0.025)) was 0.7946. The “* (significance), Freezing (min 1-5), Fisher's PLSD, Vehicle Sal vs Vehicle drug” value [6] was “** (** p<0.01)”, the “p, Freezing (min 1-5), Fisher's PLSD, Vehicle Sal vs Vehicle drug” value [6] was 0.0077 and the “p, Freezing (min 1-5), Fisher's PLSD, Vehicle drug vs E2/P4 drug” value (Ovariectomized, E2/P4 replacement, 1 week prophylactic drug, Contextual Fear Conditioning Re-exposure, FIG. 10E, Vehicle vs E2/P4, same drug, K (10), (2R,6R)-HNK (0.025)) was 0.2095. The “p, Freezing Average (min 1-5), Fisher's PLSD, E2/P4 Sal vs E2/P4 drug” value (Ovariectomized, E2/P4 replacement, 1 week prophylactic drug, Contextual Fear Conditioning Re-exposure, FIG. 10F, E2/P4 mice, K (10), (2R,6R)-HNK (0.025)) was 0.7946, the “* (significance), Freezing Average (min 1-5), Fisher's PLSD, Vehicle Sal vs Vehicle drug” value [7] was “** (** p<0.01)” and the “p, Freezing Average (min 1-5), Fisher's PLSD, Vehicle Sal vs Vehicle drug” value [7] was 0.0077. For the same molecule, the “p, Freezing Average (min 1-5), Fisher's PLSD, Vehicle drug vs E2/P4 drug” value (Ovariectomized, E2/P4 replacement, 1 week prophylactic drug, Contextual Fear Conditioning Re-exposure, FIG. 10F, Vehicle vs E2/P4, same drug, K (10), (2R,6R)-HNK (0.025)) was 0.2095, the “p, Freezing (min 1-5), Fisher's PLSD, E2/P4 Sal vs E2/P4 drug” value (Ovariectomized, E2/P4 replacement, 1 week prophylactic drug, Contextual Fear Conditioning Training, FIG. 10D, E2/P4 mice, K (10), (2R,6R)-HNK (0.025)) was 0.5725 and the “p, Freezing (min 1-5), Fisher's PLSD, Vehicle Sal vs Vehicle drug” value (Ovariectomized, E2/P4 replacement, 1 week prophylactic drug, Contextual Fear Conditioning Training, FIG. 10D, Vehicle (hormone) mice, K (10), (2R,6R)-HNK (0.025)) was 0.1466. For the same molecule, the “* (significance), Freezing (min 1-5), Fisher's PLSD, Vehicle drug vs E2/P4 drug” value [8] was “** (** p<0.01)”, the “p, Freezing (min 1-5), Fisher's PLSD, Vehicle drug vs E2/P4 drug” value [8] was 0.0004 and the “*, Freezing (min 5)” value [9] was “* (* p<0.05)”. The “p, Freezing (min 5)” value [9] was 0.0143, the “*, Freezing (min 1)” value [10] was “* (* p<0.05)” and the “p, Freezing (min 1)” value [10] was 0.0166. For the same molecule, the “*, Freezing (min 5)” value [11] was “** (** p<0.01)”, the “p, Freezing (min 5)” value [11] was 0.0078 and the “p, Freezing (min 1-5)” value [12] was 0.1932. The “p, Freezing (min 5)” value [12] was 0.2639, the “p, Freezing (min 5)” value (Sal vs. K (30), Fisher's PLSD, 3 day prophylactic drug/Contextual Fear Conditioning Training) was 0.0606 and the “Freezing during CFC Training, E2/P4+drug vs vehicle+drug” value (ovariectomized mice, hormone replacement) was “froze significantly more”. For the same molecule, the “Freezing during CFC re-exposure vs saline” value (ovariectomized mice) was “displayed altered freezing”, the “Freezing during CFC re-exposure vs saline” value (ovariectomized mice, listed as (R, S)-ketamine) was “froze significantly less than saline mice” and the “Freezing during re-exposure to the CFC training context vs saline” value (listed as (R, S)-ketamine) was “did not alter fear encoding or fear retrieval; also recorded: did not alter overall freezing”. The “Freezing during re-exposure to the CFC training context vs saline” value (listed as Racemic ketamine) was “do not significantly alter freezing”, the “Attenuation of learned fear” value was “do not attenuate learned fear” and the “Attenuation of learned fear” value (listed as (R, S)-ketamine) was “do not attenuate learned fear; also recorded: do not alter learned fear”.
